Common to all, as to type: physicochemical
A short description of data set [1]: Heating reaction test with phosphotungstic acid triacontahydrate: distribution of phosphotungstic acid. Conditions: phosphotungstic acid triacontahydrate 30 g + glucose 5 g, heated. How it is done:
(§1) Phosphotungstic acid triacontahydrate (30 g) was mixed with glucose (5 g), the resultant was heated, and various types of the selected organic solvents were added in amounts 3 times greater than the minimal amount of the solvent necessary to dissolve phosphotungstic acid (by volume). The resultant was stirred and allowed to stand, followed by phase separation. The samples were dried using a centrifuge, the phosphotungstic acid content in the dried specimens was analyzed by the ICP mass spectrometer, and glucose content was assayed via liquid chromatography.

A short description of data set [2]: Heating reaction test with saturated aqueous solution of phosphotungstic acid: distribution of glucose. Conditions: saturated aqueous solution of phosphotungstic acid triacontahydrate 30 g + glucose 5 g, heated. As for the experimental part: (§2) A saturated aqueous solution containing 30 g of phosphotungstic acid triacontahydrate was mixed with 5 g of glucose, the mixture was heated, and various types of the selected organic solvents were then added thereto in amounts 3 times greater than the minimal amount of the solvent necessary to dissolve phosphotungstic acid (by volume). The resultant was stirred and allowed to stand, followed by phase separation. Samples were dried using a centrifuge, the phosphotungstic acid content in the dried specimens was analyzed by the ICP mass spectrometer, and glucose content was assayed via liquid chromatography.

A short description of data set [3]: Assay of solubility of phosphotungstic acid in organic solvent. Conditions: in the listed organic solvent, room temperature. How it is done: Phosphotungstic acid was added to an organic solvent at room temperature. Phosphotungstic acid was continuously added until it was not able to dissolve therein, and solubility was determined based on the entire amount of phosphotungstic acid added.

Data set [4] can be described thus: Heating reaction test with saturated aqueous solution of phosphotungstic acid: distribution of phosphotungstic acid. Conditions: saturated aqueous solution of phosphotungstic acid triacontahydrate 30 g + glucose 5 g, heated. As for the experimental part: as §2
Data set [5] in a line: Heating reaction test with phosphotungstic acid triacontahydrate: distribution of glucose. Conditions: phosphotungstic acid triacontahydrate 30 g + glucose 5 g, heated. How it is done:
as §1

Data set [6] in a line: Distribution ratio of phosphotungstic acid to organic solvent and water (powdery phosphotungstic acid). The settings on record: ICP. As for the experimental part: The resultant was stirred and allowed to stand, followed by phase separation. Samples were obtained from each phase in an amount of 1 ml and the samples were dried using a centrifuge. The dried specimens were analyzed by the inductively coupled plasma (ICP) mass spectrometer. Water was dissolved in each phase in order to identify an aqueous phase.

The nature of data set [7]: Distribution ratio of phosphotungstic acid to organic solvent and water (saturated aqueous solution of phosphotungstic acid). The settings on record: ICP. How it is done: The resultant was stirred and allowed to stand, followed by phase separation. Samples were obtained from each phase in an amount of 1 ml and the samples were dried using a centrifuge. The dried specimens were analyzed by the ICP mass spectrometer. Water was dissolved in each phase in order to identify an aqueous phase.

A short description of data set [8]: Assay of solubility of glucose in organic solvent. The settings on record: in the listed organic solvent, room temperature. How it is done: Glucose was added to an organic solvent at room temperature. Glucose was continuously added until it was not able to dissolve therein, and solubility was determined based on the entire amount of glucose added.
The nature of data set [9]: Assay of distribution ratio of glucose (saturated aqueous solution of phosphotungstic acid). How it is done:
n-Butyl ethyl ether (26.67 ml) was added to a saturated aqueous solution containing 30 g of phosphotungstic acid. The resultant was stirred and allowed to stand, followed by phase separation. Glucose was continuously added until glucose was not able to dissolve in each phase. Solubility of glucose in n-butyl ethyl ether was determined based on the amount of glucose dissolved.

As to `CCCCCCCCO` [1-Octanol], the “Distribution ratio of phosphotungstic acid (based on tungsten) (%)” value (shortened to “Distribution ratio … (based on tungsten) (%)”) in data set [1] (First phase) worked out at 96.9%; in data set [1] (Second phase (aqueous phase)), 3.1%; in data set [4] (First phase), 96.8%; in [4] (Second phase (aqueous phase)), 3.2%; in data set [6] (First phase (from top)) it was 97.7%; in data set [6] (Second phase (from top)), 2.3%. Moreover, the “Distribution ratio … (based on tungsten) (%)” value in data set [7] (First phase (from top)) is 1.3%; in [7] (Second phase (from top)) it was 97.3%; in [7] (Third phase (from top)) it was 1.4%. The “Distribution ratio of glucose (%)” value was 0% in data set [2] (First phase), 100% in data set [2] (Second phase (aqueous phase)) and 100% in [5] (Second phase (aqueous phase)). Moreover, in data set [3], the “Solubility of phosphotungstic acid (wt %)” value came to 200 wt %. For the same compound, the “Solubility of glucose (wt %)” value in [8] was under 0.045 wt %.

As for `CCCCCCC(C)O` (stereo not shown) [2-Octanol], the “Distribution ratio … (based on tungsten) (%)” value in [1] (First phase) amounted to 98.3%; in data set [1] (Second phase (aqueous phase)) it was 1.7%; in data set [4] (First phase), 98.1%; in [4] (Second phase (aqueous phase)) it was 1.9%; in data set [6] (First phase (from top)), 97.9%; in data set [6] (Second phase (from top)), 2.1%. For the same compound, the “Distribution ratio … (based on tungsten) (%)” value in [7] (First phase (from top)) amounted to 1.0%; in [7] (Second phase (from top)) it was 97.7%; in data set [7] (Third phase (from top)), 1.3%. Further, the “Distribution ratio of glucose (%)” value in data set [2] (First phase) is on record as 0.8%; in data set [2] (Second phase (aqueous phase)) it was 99.2%; in data set [5] (Second phase (aqueous phase)), 100%. Besides, in data set [3], the “Solubility of phosphotungstic acid (wt %)” value came to 200 wt %. The “Solubility of glucose (wt %)” value in data set [8] is under 0.043 wt %.

For the compound `CCOCC` [Diethyl ether], the “Distribution ratio … (based on tungsten) (%)” value in data set [1] (First phase) stood at 0.03%; in data set [1] (Second phase (aqueous phase)), 1.7%; in data set [1] (Third phase), 98.3%; in data set [4] (First phase) it was 0.04%; in data set [4] (Second phase (aqueous phase)) it was 1.6%; in data set [4] (Third phase), 98.3%. In addition, the “Distribution ratio … (based on tungsten) (%)” value in data set [6] (First phase (from top)) amounted to 0.01%; in [6] (Second phase (from top)) it was 99.4%; in data set [6] (Third phase (from top)), 0.6%; in data set [7] (First phase (from top)), 0.01%; in [7] (Second phase (from top)) it was 1.5%; in data set [7] (Third phase (from top)), 98.5%. Moreover, the “Distribution ratio of glucose (%)” value amounted to 0% in data set [2] (First phase); 100% in data set [2] (Second phase (aqueous phase)); 0% in data set [2] (Third phase); 0% in data set [5] (First phase); 100% in data set [5] (Second phase (aqueous phase)); 0% in [5] (Third phase). Also, the “Solubility of phosphotungstic acid (wt %)” value in data set [3] is recorded as over 229.3 wt %. Besides, the “Solubility of glucose (wt %)” value in [8] is under 0.025 wt %.

As to `CCCCOCC` [n-Butyl ethyl ether], the “Distribution ratio … (based on tungsten) (%)” value in [1] (First phase) stood at 0.1%; in data set [1] (Second phase (aqueous phase)) it was 10.2%; in data set [1] (Third phase) it was 89.7%; in data set [4] (First phase), 0.1%; in data set [4] (Second phase (aqueous phase)), 8.9%; in data set [4] (Third phase) it was 91.0%. Besides, the “Distribution ratio … (based on tungsten) (%)” value in data set [6] (First phase (from top)) is 0.1%; in data set [6] (Second phase (from top)) it was 2.9%; in [6] (Third phase (from top)) it was 97.0%; in [6] (Third phase (from top), listed as n-butyl ethyl ether), 97%; in [7] (First phase (from top)) it was 0.1%; in data set [7] (Second phase (from top)), 5.1%. The “Distribution ratio … (based on tungsten) (%)” value in data set [7] (Third phase (from top)) is 94.8%. Moreover, the “Distribution ratio of glucose (%)” value in data set [2] (Second phase (aqueous phase)) stood at 100%; in [2] (Third phase) it was 0%; in [9] (First phase) it was 0.1%; in [9] (Second phase (aqueous)) it was 97.7%; in data set [9] (Third phase), 2.2%; in data set [5] (Second phase (aqueous phase)), 100%. For the same compound, the “Distribution ratio of glucose (%)” value in [5] (Third phase) amounted to 0%. Besides, the “Solubility of phosphotungstic acid (wt %)” value in data set [3] is reported as 300 wt %. Also, the “Solubility of glucose (wt %)” value in [8] is under 0.03 wt %.

For the origin of these results see US20100324282A1, “METHOD FOR SEPARATING HETEROPOLYACID” (TOYOTA JIDOSHA KABUSHIKI KAISHA, priority 2009, published 2010).
